# Test results from ChEMBL document CHEMBL1151191, “Rugulotrosins A and B: Two new antibacterial metabolites from an Australian isolate of a Penicillium sp” (J Nat Prod, 2004).
# Columns and labels:
# Bacillus subtilis = assay: Antibacterial activity against Bacillus subtilis ATCC 6633 after 24 hrs by agar-based microtiter plate assay; format: functional
# Enterococcus faecalis = assay: Antibacterial activity against Enterococcus faecalis ATCC 29212 after 24 hrs by agar-based microtiter plate assay; format: functional
# Staphylococcus aureus = assay: Antibacterial activity against Staphylococcus aureus ATCC 25923 after 24 hrs by agar-based microtiter plate assay; format: organism-based
# Bacillus cereus = assay: Antibacterial activity against Bacillus cereus ATCC 11778 after 24 hrs by agar-based microtiter plate assay; format: organism-based
SMILES,LD99 (Bacillus subtilis) [µg/mL],LD99 (Enterococcus faecalis) [µg/mL],LD99 (Staphylococcus aureus) [µg/mL],LD99 (Bacillus cereus) [µg/mL]
COC(=O)[C@]12Oc3c(Br)c(C)c(-c4c(C)c(Br)c(O)c5c4O[C@@]4(C(=O)OC)C(=C(O)CC[C@@H]4O)C5=O)c(O)c3C(=O)C1=C(O)CC[C@@H]2O,6.3,–,–,–
COC(=O)[C@]12Oc3cc(C)c(-c4c(C)cc5c(c4O)C(=O)C4=C(O)CC[C@H](O)[C@@]4(C(=O)OC)O5)c(O)c3C(=O)C1=C(O)CC[C@@H]2O [RUGULOTROSIN A],–,1.6,200,3.1
COC(=O)[C@]12Oc3cc(C)c(-c4c(C)cc(O)c5c4O[C@@]4(C(=O)OC)C(=C(O)CC[C@@H]4O)C5=O)c(O)c3C(=O)C1=C(O)CC[C@@H]2O [RUGULOTROSIN B],25,–,–,–
